{
  "source": "paper PMC7200681",
  "about": "“The calcitonin-like system is an ancient regulatory system of biomineralization” (Scientific Reports, 2020)",
  "key": {"[1]": {"tested_on": "acid phosphatase (AP) activity in mussel mantle edge", "test": "Acid phosphatase (TRAP) activity in mantle after ex-vivo incubation", "design": "species or system Mytilus galloprovincialis", "details": "after exposure to CALCIIa 10 μM or ouabain 2 mM; TRAP assay, pNPP, pH 5.3; p < 0.05", "protocol": "(A) Esterase activity and (B) Acid phosphatase activity. Enzyme activity was quantified in protein extracts from the mantle of control or challenged samples that were incubated with the mussel CALCIIa peptide. Values represent the mean ± SEM (CA, n = 6 and TRAP, n = 10) performed in duplicate. Prism GraphPad v5 software was used to assess the significance of the differences between the groups using One-way Anova and Tukey’s multiple comparison test. […] C - control; P - peptide (10 μM); O - ouabain (2 mM), OP - ouabain (2 mM) and peptide (10 μM); PreOP - pre stimulation for 1 hour with the peptide and 4 hours incubation with OP.\nThe posterior mantle edge region of the Mediterranean mussel was collected and washed in culture medium. The composition of the culture medium was as described in[91] […] The culture medium was supplemented with heat inactivated 2% FBS (SIGMA-ALDRICH), 0.1% penicillin: streptomycin antibiotic mix (10.000 U:10 mg/ml, SIGMA-ALDRICH) and 250 μg/ml sterile filtered 1:100 amphotericin B solution (Sigma-Aldrich). The posterior mantle edge from mussels was collected into culture medium and cut into fragments of approximately 1–2 mm in length. […]\nAcid phosphatase activity of the mantle protein extracts (n = 6/ group) was determined using 96 well-plates (GREINER, Germany) and a tartrate resistant acid phosphatase (TRAP) assay as described in[93]."}, "mussel CALCRIa": {"tested_on": "mussel CALCRIa", "test": "Calcium mobilization assay (apoaequorin bioluminescence), dose-response, HEK 293 cells expressing mussel CALCRIa", "assay_type": "cell-based, Mytilus galloprovincialis", "details": "calcium mobilization, HEK 293/apoaequorin, 1 μM to 0.01 nM", "source_text": "(§1) The complete sequence of the Mediterranean mussel CALCRIa was amplified using specific primers (Table 1) from cDNA of a tissue mixture (mantle, adductor muscle, gills, gonads) using a proofreading DNA polymerase (iProof BIORAD, Portugal) and cloned into the pGEMT-easy vector (PROMEGA, Spain). The Mediterranean mussel CALCRIIa transcript that was found in the mantle transcriptome was incomplete and lacked the N-terminus (by comparisons with the hard-shelled mussel homologue) and so the remaining sequence (from 1–393 bp) was deduced from the hard-shelled mussel homologue receptor and the receptor was synthesised and supplied by GENESCRIPT (USA). The complete transcripts for mussel CALCRIc, CALCRIIb and CALCRIIc were only found in the hard-shelled mussel mantle transcriptome and homologues were only found in the Mediterranean mussel genome as they were absent from the species mantle transcriptome and so they were also synthesised and supplied by GENESCRIPT (USA) using the hard-shelled mussel receptor sequences as template. The mussel CALCRIb transcript was incomplete and lacked both N and C-terminal regions and it was not possible to obtain the complete transcript either by searching both mussels mantle transcriptomes or the Mediterranean mussel genome and so it was not produced. All synthetized receptors were provided in the pUC57 cloning vector by the company and receptor codon usage was optimized to favour a high level of expression in mammalian cells.\nMammalian cell cultures and transfections followed the methodology described by[89],[90]. Mammalian HEK293 cells (ECACC, UK) were used and they were maintained in complete Dulbecco’s modified Eagle’s medium (DMEM, 4.5 g/l glucose, 110 mg/l sodium pyruvate and L-glutamine, SIGMA-ALDRICH, Spain) supplemented with 10% sterile foetal bovine serum (FBS), 0.1% penicillin: streptomycin antibiotic mix (10,000 U:10 mg/ml, Sigma) and 250 μg /ml sterile filtered 1:100 amphotericin B solution (SIGMA-ALDRICH) in a humid 5% CO2 incubator (HERAEUS, Portugal) at 37 °C. On the day prior to transfection, 2–3 × 10^5 HEK293 cells were seeded on 6 well plates (SARSTEDT, Portugal) and transfected with Fugene HD transfection reagent (2 DNA: 4 Fugene ratio, PROMEGA) following the manufacturer’s protocol. Seventy-two hours after transfection, 800 μg/ml of the antibiotic Geneticin (SIGMA-ALDRICH) was added to the medium to select and isolate stable receptor cell lines. Cell recovery was monitored daily and the medium was changed every two days until no cell death was observed. […]\n(§2) HEK293 cells stably expressing five mussel receptors (CALCRIa, CALCRIc, CALCRIIa, CALCRIIb and CALCRIIc) were stimulated with the two mussel peptides and the vertebrate (human and salmon) calcitonins. Receptor activation was assessed in vitro by measuring two intracellular signalling pathways: a) production of cAMP and b) mobilization of calcium (Ca^2+). The cellular response was initially assessed using 10 μM of each peptide. […]\nStable cell lines expressing the mussel receptors were transiently co-transfected with the mitochondrial targeted apo-aequorin protein cloned in pcDNA3.1. Two days after transfection cells were washed, counted and resuspended in 1 ml of DMEM /F12 Ham (without phenol red)/0.1% BSA supplemented with 2 µM coelenterazine (SIGMA-ALDRICH). […] The injector system of the Biotek Synergy 4 microplate reader (USA) was used to inject 50 µl of the cell suspensions into wells containing 50 μl of the diluted peptide in DMEM / F12 Ham / 0.1% BSA. […]"}, "mussel CALCRIIc": {"tested_on": "mussel CALCRIIc", "test": "Calcium mobilization assay (apoaequorin bioluminescence), dose-response, HEK 293 cells expressing mussel CALCRIIc", "assay_type": "cell-based, Mytilus coruscus", "details": "HEK 293/apoaequorin, 1 μM to 0.01 nM", "source_text": "as §1, with “The mussel CALCRIb transcript was incomplete and lacked both N and C-terminal regions and it was not possible to obtain the complete transcript either by searching both mussels mantle transcriptomes or the Mediterranean mussel genome and so it was not produced. All synthetized receptors were provided in the pUC57 cloning vector by the company and receptor codon usage was optimized to favour a high level of expression in mammalian cells.” left out\nMammalian cell cultures and transfections followed the methodology described by[89],[90]. […] Cell recovery was monitored daily and the medium was changed every two days until no cell death was observed. […]\nas §2\nStable cell lines expressing the mussel receptors were transiently co-transfected with the mitochondrial targeted apo-aequorin protein cloned in pcDNA3.1. Two days after transfection cells were washed, counted and resuspended in 1 ml of DMEM /F12 Ham (without phenol red)/0.1% BSA supplemented with 2 µM coelenterazine (SIGMA-ALDRICH). […]"}},
  "note": "Bridge positions count the residues as written; N and C are the ends.",
  "data": [
    {"substance": "H-CTWGGGMSDEMCSTVDIDEIQRSFQVIHDRNSP-NH2 (disulfide 1-12 (inferred)) [CALCIIa, Mediterranean mussel calcitonin-like mature peptide, 33 aa, synthesized with disulphide bond and C-terminal amidation]", "values": [
      {"measurement": "Acid phosphatase (AP) activity in mantle edge compared to control (in words)", "setting": "[1]", "result": "significantly decreased"},
      {"measurement": "Activation of mussel CALCRIa in dose-response analysis (in words)", "setting": "mussel CALCRIa", "result": "not activated"},
      {"measurement": "Activation of mussel CALCRIIc in dose-response analysis (in words)", "setting": "mussel CALCRIIc", "result": "exclusively activated"}
    ]}
  ]
}
